Legend:
[1] = tested on: NRK49F cells; test: TGFβ stimulation of NRK49F rat kidney fibroblasts, gene expression by quantitative PCR; assay type: cell-based
Experimental: Effect of stimulation by TGFβ, known as a promoting factor of fibrosis (Refer to Nephrol Dial Transplant., 1998, vol. 13, p. 573-579), on gene expression of NNMT, COL1A1, COL3A1 and COL4A1 was examined using NRK49F cells that are rat kidney fibroblasts. NRK49F cells were seeded into 12 well plates at 4×10^4 cells/well/mL and culture medium was changed to serum-free medium after 72 hr. Recombinant human TGFβ1 (R & D Co., Ltd., 5 ng/mL) was added after 24 hr and the cells were cultured for 6, 24 and 48 hr. After culture, total RNA was extracted from cells and the gene expression levels of NNMT, COL1A1, COL3A1 and COL4A1 were analyzed by quantitative PCR.
(§1) The siRNA of NNMT was introduced into NRK49F cells, rat kidney fibroblast cell line, the effect of which on enhanced gene expression of COL1A1, COL3A1 and COL4A1 by TGFβ stimulation was examined (FIG. 4). After NRK49F cells were seeded into 12 well plates at 4×10^4 cells/well/mL and culture for 72 hr, culture medium was changed to antibiotic-free medium and siRNA sequence (F; […] (SEQ ID NO: 2), R; […] (SEQ ID NO: 3)) for rat NNMT purchased was introduced into cells for 24 hr by lipofection method using RNAiMAX (Invitrogen Corp.) which is an introduction reagent of siRNA. Next, culture medium was changed to serum-free medium and after 24 hr, human recombinant TGFβ (R & D Co., Ltd., 5 ng/mL) was added and cultured for 48 hr. After culture, total RNA was extracted from cells and the gene expression levels of NNMT, COL1A1, COL3A1 and COL4A1 were analyzed by quantitative PCR.

[2] = tested on: rat NNMT; test: siRNA knock-down of NNMT gene expression in TGFβ-stimulated NRK49F cells (quantitative PCR); assay type: cell-based; conditions: TGFβ 5 ng/mL, 48 hr
Experimental: as §1

[3] = tested on: gene expression of COL1A1, COL3A1 and COL4A1 in NRK49F cells; test: Effect of NNMT siRNA on collagen gene expression enhanced by TGFβ in NRK49F cells (quantitative PCR); assay type: cell-based, rat; conditions: TGFβ 5 ng/mL, 48 hr
Experimental: as §1

Substance	increase in gene expression of COL1A1 ([1]; TGFβ 5 ng/mL, 48 hr)	increase in gene expression of COL3A1 ([1]; TGFβ 5 ng/mL, 48 hr)	increase in gene expression of COL4A1 ([1]; TGFβ 5 ng/mL, 48 hr)	increase in gene expression of NNMT ([1]; TGFβ 5 ng/mL, 48 hr)	gene expression level of COL1A1 over time ([1]; TGFβ1 5 ng/mL, 6, 24 and 48 hr)	gene expression level of COL3A1 over time ([1]; TGFβ1 5 ng/mL, 6, 24 and 48 hr)	gene expression level of NNMT over time ([1]; TGFβ1 5 ng/mL, 6, 24 and 48 hr)	gene expression of COL4A1 over time ([1]; TGFβ1 5 ng/mL, 6, 24 and 48 hr)	knock-down of gene expression of NNMT ([2]; siRNA 0.01 nM)	knock-down of gene expression of NNMT ([2]; siRNA 0.1 nM)	knock-down of gene expression of NNMT ([2]; siRNA 1 nM)	decrease in gene expression of COL1A1 ([3]; siRNA 0.01 nM)	decrease in gene expression of COL3A1 ([3]; siRNA 0.01 nM)	decrease in gene expression of COL4A1 ([3]; siRNA 0.01 nM)	decrease in gene expression of COL1A1 ([3]; siRNA 0.1 nM)	decrease in gene expression of COL3A1 ([3]; siRNA 0.1 nM)	decrease in gene expression of COL4A1 ([3]; siRNA 0.1 nM)	decrease in gene expression of COL1A1 ([3]; siRNA 1 nM)	decrease in gene expression of COL3A1 ([3]; siRNA 1 nM)	decrease in gene expression of COL4A1 ([3]; siRNA 1 nM)
TGFβ1: Recombinant human TGFβ1 (R & D Co., Ltd.), promoting factor of fibrosis used as stimulus	7.1 fold	6.5 fold	3.1 fold	about 3.6 fold	time-dependent increases	time-dependent increases	time-dependent increases	reached the maximum level in 6 hr and left the plateau to 24 hr												
siRNA of NNMT: siRNA for rat NNMT, purchased; F CCACAUCCAAUAAUGAAGGACUCUU (SEQ ID NO: 2), R AAGAGUCCUUCAUUAUUGGAUGUGG (SEQ ID NO: 3) (listed as RNA, chemistry not given here)									23%	45%	60%	20%	20%	33%	36%	31%	15%	78%	62%	57%
